For 89 molecules, melting point results are on record in a melting point compilation (Tetko et al.; mined from patent text by program, amines drawn as free bases though some values may be those of a salt).

Consider `CCOC(=O)c1cn(-c2ccc(F)cc2F)c2nc(SCC)c(F)cc2c1=O`, for which the melting point (usually the temperature, or range, at which the solid turns liquid) lay within 170 to 171 °C.
In the case of `O=C1C=CC(=O)N1CCCCCCN1C(=O)C=CC1=O` it was 136 to 139 °C; in that of `Cc1ccccc1-c1nc(N)ncc1-c1ccc(=O)[nH]n1`, 313 °C; in that of `CCCCCCCCCCCCCCc1ccc(O)c(C(C)=O)c1`, 38.5 to 39.5 °C.
With `O=C(Nc1ccc([C@@H]2[C@H]3COC(=O)[C@H]32)c(F)c1)OCc1ccccc1`, the melting point lay within 141 to 142 °C.
Regarding `CCOC(=O)NN=Cc1nc(C)[nH]c1C`, the melting point is 208 to 210 °C.
`C=CCC1C(=O)CCCC1=O` had a melting point of 125 to 127 °C.
Then `Fc1cccc(F)c1-c1nc(/C=C/c2ccc(-c3ccc(OC(F)(F)F)cc3)cc2)no1`, with 122 to 123 °C; and `Cc1cccc(-c2nc(N)sc2-c2ccnc(-c3ccc(C(=O)N4CCOCC4)cc3)c2)n1`, with 158 to 160 °C.
In the case of `Cc1cccc(C)c1NC(=O)CCC1CCC(=O)N1` (centres undefined) it was 206 to 208 °C.
As for `O=[N+]([O-])C1=C2N(Cc3cnc(Cl)s3)CCN2C2CCC1O2` (centres undefined), the melting point was 152 °C.
Then `COC(=O)C(C)NC(=O)NS(=O)(=O)C=Cc1ccccc1` (centres undefined), with 138 to 140 °C.
Then `COC(=O)CC(=O)NC[C@H]1CN(c2ccc3c(c2)CCCc2cnoc2-3)C(=O)O1`, with 205 to 217 °C; and `CCCCCCC(=O)Nc1ccc(-n2nc(C(F)(F)F)cc2C(F)(F)F)cc1`, with 88 to 90 °C; and `Cn1c(CCN2CCC(c3ccccc3)CC2)nc2ccc3ccccc3c21`, with 182 °C.
Consider `COc1ccc(C(=C(C=O)c2nnnn2C)c2ccc(OC)cc2)cc1`, for which the melting point lay within 130 to 131 °C.
`CC(=O)N1c2cc(C)c(S(=O)(=O)C[N+](=O)[O-])c(C)c2CC1C` (centres undefined) showed a melting point of 175 °C.
`CC(CC(F)(F)C(F)(F)C(F)(F)C(F)(F)CC(C)C(=O)O)C(=O)O` (centres undefined): the melting point fell in the range of 166 to 168 °C.
`CC(C)NCC(O)COc1ccc(-c2cc3ncccc3c(=O)n2C)cc1` (centres undefined): the melting point lay in the range of 135 to 139 °C.
The molecule `Cc1nc(O)c([N+](=O)[O-])c(N2CCc3ccccc3CC2)n1` gave a melting point of over 200 °C.
For the molecule `O=[N+]([O-])c1ccc2nc(CO)[nH]c2c1`, the melting point was in the range of 157 to 162 °C.
The molecule `CCOC(=O)c1nc2cc(C)sc2nc1N` showed a melting point of 121 to 123 °C.
`CN1CCN(C2=Nc3cc(C(F)(F)F)ccc3Nc3nn(C)nc32)CC1` showed a melting point of 109 to 111 °C.
In turn, `CC(C)(C)c1onc(NS(=O)(=O)c2ccccc2)c1Br` yielded a melting point of 139 to 141 °C.
As for `Cc1ccc2c(NCc3ccc(NC(=O)c4ccc(F)cc4)cc3)nc(NC3CCN(Cc4ccccc4)CC3)nc2c1`, the melting point lay within 135 to 138 °C.
With `CCC(=O)NCC1CC1c1cccc2nc(C)cn12` (centres undefined), the melting point was 88 to 90 °C.
Then `CC(C)c1nc2cc(NC(=O)c3c(C(=O)N4CCCC4)cnn3C)ccn2n1`, with 141 to 143 °C.
In turn, `C=C(CN1C(=O)c2ccccc2C1=O)c1ccccc1` showed a melting point of 118 to 121 °C.
With `C[C@@H](O)C(=O)OC(C)(C)C`, the melting point was 41 to 42 °C.
As to `COc1ccc2c(c1OC)CCC=C2C#N`, the melting point was in the range of 139 to 140 °C.
Molecule `CC(=O)NCC1CC1c1cccc2nnsc12` (centres undefined) showed a melting point of 81 to 82 °C.
Then `CCC1=NC=C(c2ccc3c(c2)NC(=O)CO3)C(c2ccccc2)S1` (centres undefined), with 130 to 134 °C; and `COC(=O)C=Cc1ccc(OCc2nc(-c3ccc4ccccc4c3)oc2C)cc1`, with 185 to 186 °C.
As for `NC(=O)CCN(CCC(N)=O)Cc1ccccc1`, the melting point fell in the range of 103 to 106 °C.
`CCOC(=O)Cn1cccc(NS(=O)(=O)Cc2ccccc2)c1=O` gave a melting point of 48 to 49 °C.
In the case of `CCCc1c(OCCCCCC(=O)c2cc(C)c(O)c(O)c2C)ccc(C(=O)O)c1O` it was 121 to 125 °C; in that of `Clc1ccc2c(c1)CCc1cccnc1C2=C1CCNCC1`, 154 to 155 °C.
As to `COc1cc(C#N)ccc1Cc1c[nH]c2ccc([N+](=O)[O-])cc12`, the melting point fell in the range of 204 to 206 °C.
`CN1CCCC1=NC(=O)Nc1ccc(F)cc1` registered a melting point of 113 to 115 °C.
Regarding `O=C(Cc1ccc(C(=O)O)cc1)C(=O)c1ccccc1`, the melting point was in the range of 192 to 195 °C.
Molecule `NC1=NCC(COc2ccccc2F)O1` (centres undefined) gave a melting point of 124 °C.
`CCN1C(=O)C(C)(C)C(=O)N(C)c2cc(CN(CCn3ccc4oc(C)cc4c3=O)Cc3cccc(C=O)c3)ccc21` had a melting point of 79 to 84 °C.
Then `Cc1c(CC2CCc3c(c4ccccc4n3C)C2=O)ncn1C(c1ccccc1)(c1ccccc1)c1ccccc1` (centres undefined), with 193 to 195 °C; and `Cc1oc(-c2ccccc2)nc1COc1cc(COc2ncccc2C#N)on1`, with 139 to 140 °C; and `COC(=O)c1ccc(Cl)c(C(=O)NOCc2ccc(Cl)cc2)c1Cl`, with 120 to 121 °C.
Consider `Cc1nn(C(=O)NC2CCCCC2)c(=O)n1NC(C)C`, for which the melting point was 92 °C.
In the case of `CC1Cc2cc(S(=O)(=O)n3cc(-c4ccccc4)[nH]c3=O)ccc2N1C(=O)c1ccc([N+](=O)[O-])cc1` (centres undefined) it was 168 to 172 °C; in that of `Cc1c(OCc2ccc([Si](C)(C)C)cc2)cnn(C(C)(C)C)c1=O`, 93.5 to 95.5 °C.
In turn, `ON=Cc1c(O)ccc2c1OCO2` displayed a melting point of 161 to 162 °C.
For the molecule `COc1ccc(N(C(=O)c2ccc(OC)c(F)c2)c2ccc(F)cc2)cc1`, the melting point was 54 to 56 °C.
In the case of `Fc1ccc(Oc2ccnc3cc(Cl)ccc23)cc1` it was 89 to 91 °C; in that of `COc1cc(CC(=O)O)ccc1OCCCc1cn(-c2ccc(C(F)(F)F)cn2)nc1C(C)C`, 134 to 135 °C.
For the molecule `C=CCOc1ccc(OC(C)=O)c2ccc(=O)[nH]c12`, the melting point was 142 to 143 °C.
`CCOC(=O)c1c(C(F)(F)F)nc(C(F)(F)F)c(C(=O)OCC)c1C` showed a melting point of 55 to 58 °C.
The molecule `CC(C)(C)OC(=O)N[C@H]1CN(Cc2ccccc2)[C@@H]2CCO[C@H]12` (relative stereo) gave a melting point of 115 to 116 °C.
In the case of `Cc1nc(-c2cccc(Nc3ccc(I)cc3[N+](=O)[O-])c2)cs1` it was 137 to 138 °C; in that of `Cc1oc(-c2ccco2)nc1COc1ccc(COc2nn(Cc3ccc(OCc4nc(-c5ccco5)oc4C)cc3)cc2C=O)cc1`, 109 to 110 °C.
`CCCCCCCCCCCC(=O)NC(CCCCNN=C=S)C(=O)O` (centres undefined) yielded a melting point of 37 to 39 °C.
`CC(=C1SC(=O)NC1=O)c1ccc(OCCCOc2c(-c3ccc(F)cc3)n(C)c3ccccc3c2=O)c(Cl)c1` showed a melting point of 232 to 234 °C.
In the case of `COC(=O)c1ccc(CCCOCCCCCNCC(O)c2cc(Cl)c(N)c(Cl)c2)o1` (centres undefined) it was 58 to 59 °C.
In turn, `CC(C)[C@H](NC(=O)OCc1ccccc1)C(=O)N(CC(=O)O)Cc1ccccc1` returned a melting point of 41 to 45 °C.
`O=S(CCCCF)CCCCCOc1ccc(C2=C(c3ccccc3)CCCc3cc(O)ccc32)cc1` (centres undefined) showed a melting point of 233 °C.
`Cn1nc(C(F)(F)F)cc1Oc1cc(C#N)cc(Oc2cc(C(F)(F)F)nn2C)n1`: the melting point is 140 °C.
Regarding `CC1(C)COc2ccc(F)cc2C(O)(c2ccccn2)C1` (centres undefined), the melting point was found to be 110 °C.
`CC(=O)Oc1ccc(C=C2CCCc3cc(C)cnc32)cc1` displayed a melting point of 119 to 122 °C.
Consider `CC(C)(C)c1ccc(Cn2c(-c3ccc4c(c3)OCO4)nc3ccccc32)cc1`, for which the melting point fell in the range of 142 to 144 °C.
`CN1CC[C@@H](c2c(O)cc(O)c3c(=O)cc(-c4cccs4)oc23)[C@@H]1CO` gave a melting point of 218 to 220 °C.
`COC(COc1cc(C)cc(O)c1)OC` yielded a melting point of 73 to 75 °C.
`CN(C)CCCOc1ccc(-c2ccc(C(=O)O)cc2)cc1-c1ccc2c(c1)C(C)(C)CCC2(C)C`: the melting point worked out at 199 °C.
For the molecule `CC(C)CC[C@H](O)[C@H](CC1CCCCC1)NC(=O)[C@H](Cc1c[nH]cn1)NC(=O)[C@H](Cc1ccccc1)NC(=O)N1CCOCC1`, the melting point was 108 to 110 °C.
As to `OCC(CO)n1nnnc1S`, the melting point was 138 °C.
Regarding `OCCc1ccc(OCc2coc(/C=C/c3ccccc3)n2)cc1`, the melting point fell in the range of 123 to 124 °C.
The molecule `CCOC(=O)c1ccc(-c2ccc(-c3ccccc3)s2)s1` gave a melting point of 113 to 115 °C.
For the molecule `O=c1cc(-c2cccs2)oc2cccc(OCCOc3ccccc3)c12`, the melting point lay in the range of 173 to 174 °C.
Take `O=Cc1c(F)cccc1NCc1ccccc1`: the melting point is 72.5 to 74.5 °C.
In the case of `Cc1c(-c2ccccc2)oc2c(C(=O)N(C)CCCl)cccc2c1=O`, the melting point was in the range of 126 to 128 °C.
Consider `CCc1c([N+](=O)[O-])c(C(N)=O)nn1C[C@H]1CCCN1C`, for which the melting point was 111 to 116 °C.
As to `O=C(CCCNC(=O)C(=O)c1cn2c3c(cccc13)CCC2)NOCc1ccccc1`, the melting point was in the range of 88 to 90 °C.
As for `CCNC(=O)c1cc(C(F)(F)F)ccc1[Si](C)(C)C`, the melting point was in the range of 101 to 102 °C.
Then `O=S(=O)(Nc1cccc(CCOCc2nc(-c3ccc(C(F)(F)F)cc3)sc2Cl)c1)C(F)(F)F`, with 107 to 109 °C.
Molecule `CCC1(CC)c2cc(-c3ccc(-c4ccc(O)cc4)cc3)ccc2-c2ccc(-c3ccc(-c4ccc(O)cc4)cc3)cc21` displayed a melting point of over 300 °C.
On to `C#CCOc1cccc(NC(=O)c2ccccc2C)c1`, for which the melting point lay within 93 to 95 °C.
`CN(Cc1ccc2c(Br)c(O)ccc2c1)C(=O)c1cn(C)c2ccccc12` displayed a melting point of 189 to 190 °C.
`Cn1c(=O)ccn(C2C=CC(CO)O2)c1=O` (centres undefined) yielded a melting point of 203 to 204 °C.
Turning to `CC(=O)NCC1CN(c2cc(F)c(N3CCN(C(=O)COC(=O)n4ccnc4)CC3)c(F)c2)C(=O)O1` (centres undefined), the melting point is 199 to 200 °C.
In the case of `CNC(=O)N1CC(Oc2ccc(C(F)(F)F)cc2)C1` it was 154 to 157 °C; in that of `O=C(O)C1CCN(c2ncc(NS(=O)(=O)C(F)(F)F)c(NCc3ccccc3)n2)CC1`, 160 °C.
`NC(=S)Nc1ccccc1C1CC1`: the melting point lay in the range of 152 to 154 °C.
On to `c1ccc2sc(N3CCNCC3)nc2c1`, for which the melting point is 63 to 64 °C.
